According to article PMC6015749 (Neurotoxicology, 2018):
Where “and” joins values, the source holds several entries; their conditions need not be identical. Equal entries are not always repeated. Entries after “also recorded” stand apart in the source; their conditions may differ. Where two headings read alike, the source gives them in different places.

Key:
[1] = test system: dopaminergic (TH+, MAP2+) neurons in primary midbrain cultures; format: cell-based, rat; details: for mean % dopaminergic neurons ± S.E.M: n = 6; for Selective loss of dopaminergic neurons / DA neuron loss at 1 µM: vs. control; for percentage of dopaminergic neurons (mean ± SEM), time course: n = 4, control 6.30 ± 0.58
[2] = test system: dopaminergic (TH+) neurites in primary midbrain cultures; test: Neurite length quantification of dopaminergic; format: cell-based, rat; details: for Dopaminergic (TH+) neurite length (mean ± SEM) / Decrease in dopaminergic (TH+) neurite length / Concentration at which decreased dopaminergic (TH+) neurite length was detected / Change in dopaminergic (TH+) neurite length: 24 h; for Decrease in dopaminergic (TH+) neurite length: vs. control; for Concentration at which decreased dopaminergic (TH+) neurite length was detected: doses 100 nM – 5 µM; for Change in dopaminergic (TH+) neurite length, time course: 24 – 72 h
[3] = test system: total neurons (MAP2+) in primary midbrain cultures; test: Neurite length quantification, pan-neuronal; format: cell-based, rat; details: 1 µM, 24 – 72 h, all time-points
[4] = test system: non-dopaminergic (TH-, MAP2+) neurons in primary midbrain cultures; test: Raw non-dopaminergic; format: cell-based, rat; details: 1 µM, 24 – 72 h, all time-points
[5] = test system: non-dopaminergic (TH-, MAP2+) neurons in primary midbrain cultures; test: 3-Nitrotyrosine; details: 1 µM; control 100 ± 21.61
[6] = test system: dopaminergic (TH+, MAP2+) neurons in primary midbrain cultures; test: 3-Nitrotyrosine; details: 1 µM; for NT fluorescence intensity normalized to mean control value ± SEM, dopaminergic neurons: control 100 ± 9.1
[7] = ref PubChem Compound Database; cited from earlier work

Compound | DA neuron loss at 1 µM ([1]; 1 µM, 24 h) | Effect on non-dopaminergic neurites, time course [3] | percentage of dopaminergic neurons (mean ± SEM), time course ([1]; 1 µM, 24 h) [%] | mean % dopaminergic neurons ± S.E.M ([1]; 1 µM, 24 h) [%] | percentage of dopaminergic neurons (mean ± SEM), time course ([1]; 1 µM, 48 h) [%] | percentage of dopaminergic neurons (mean ± SEM), time course ([1]; 1 µM, 72 h) [%] | Change in dopaminergic (TH+) neurite length, time course ([2]; 1 µM) | Dopaminergic (TH+) neurite length (mean ± SEM) ([2]; 1 µM) [µm] | Decrease in dopaminergic (TH+) neurite length ([2]; 1 µM) [%] | Effect on non-dopaminergic (MAP2+/TH-) cell counts, time course [4] | further results
c1ccc2c(c1)[nH]c1cnccc12 [Norharmane, 9H-Pyrido[3,4-B]indole] | 20% | – | – | – | – | – | – | – | – | – | mean % dopaminergic neurons ± S.E.M ([1]; 100 nM, 24 h): 4.703 ± 0.3711%; Selective loss of dopaminergic neurons ([1]; 100 nM, 24 h): 18%; Dopaminergic (TH+) neurite length (mean ± SEM) ([2]; 500 nM): 63.15 ± 1.864 µm; Decrease in dopaminergic (TH+) neurite length ([2]; 500 nM): 11%; Concentration at which decreased dopaminergic (TH+) neurite length was detected [2]: 500 nM; Concentration at which decreased dopaminergic (TH+) neurite length was detected ([2]; listed as norharmane): ≥ 500 nM
Cn1c(N)nc2c3cccnc3ccc21 [IQ, 2-amino-3-methylimidazo[4,5-f]quinoline] | Not significant | – | – | – | – | – | – | – | – | – | mean % dopaminergic neurons ± S.E.M ([1]; 5 µM, 24 h): 4.338 ± 0.4525%; Selective loss of dopaminergic neurons ([1]; 5 µM, 24 h): 23%; Change in dopaminergic (TH+) neurite length ([2]; higher doses): not significant decreases; Change in dopaminergic (TH+) neurite length ([2]; low doses (100 and 200 nM)): significant increases
Cn1c(N)nc2ncc(-c3ccccc3)cc21 [PhIP, 2-amino-1-methyl-6-phenylimidazo[4,5-b]pyridine] | 19% | not affected | 5.17 ± 0.95 | 4.612 ± 0.3403 | 4.60 ± 0.70 | 3.61 ± 0.45 | Decreased | 57.76 ± 1.656 | 15 | not affected | –
Cc1nccc2c1[nH]c1ccccc12 [Harmane, 1-methyl-9H-pyrido[3,4-b]indole] | 21% | not affected | 6.04 ± 0.72 | – | 4.80 ± 0.90 | 3.47 ± 0.53 | Decreased | – | – | not affected | Threshold for detectable selective DA neurotoxicity [1]: 200 nM; mean % dopaminergic neurons ± S.E.M ([1]; 200 nM, 24 h): 4.677 ± 0.2123%; Selective loss of dopaminergic neurons ([1]; 200 nM, 24 h): 15%; NT fluorescence intensity normalized to mean control value ± SEM, non-dopaminergic neurons [5]: 188.1 ± 23.92; Dopaminergic (TH+) neurite length (mean ± SEM) ([2]; 100 nM): 62.67 ± 1.713 µm; Decrease in dopaminergic (TH+) neurite length ([2]; 100 nM): 14%; Fold increase in NT immunofluorescence signal vs. control, dopaminergic neurons [6]: ~7 fold; NT fluorescence intensity normalized to mean control value ± SEM, dopaminergic neurons [6]: 731.3 ± 94.03
Cc1cnc2cc(C)c3c(nc(N)n3C)c2n1 [4,8-DiMeIQx, 2-amino-3,4,8-trimethylimidazo[4,5-f]quinoxaline] | 26% | – | – | – | – | – | – | – | – | – | mean % dopaminergic neurons ± S.E.M ([1]; 100 nM, 24 h): 4.663 ± 0.3194%; Selective loss of dopaminergic neurons ([1]; 100 nM, 24 h): 20%; Change in dopaminergic (TH+) neurite length ([2]; all tested doses 100 nM – 5 µM): no significant alteration; also recorded: did not have an effect
Cc1cnc2ccc3c(nc(N)n3C)c2n1 [MeIQx, 2-amino-3,8-dimethylmidazo[4,5-f]quinoxaline] | 17% | – | – | 4.207 ± 0.3535 | – | – | – | 61.97 ± 1.94 | 12 | – | Concentration at which decreased dopaminergic (TH+) neurite length was detected [2]: 1000 nM; Log P [7]: 1.0
Nc1ccc2c(n1)[nH]c1ccccc12 [AαC, 2-amino-9H-pyrido[2,3-b]indole] | 27% | – | – | 3.932 ± 0.4382 | – | – | – | – | – | – | Dopaminergic (TH+) neurite length (mean ± SEM) ([2]; 100 nM): 62.93 ± 1.743 µm; Decrease in dopaminergic (TH+) neurite length ([2]; 100 nM): 11%
Cc1cc2ncccc2c2nc(N)n(C)c12 [MeIQ, 2-amino-3,4-dimethylimidazo[4,5-f]quinoline] | 25% | not affected | 5.51 ± 0.66 | – | 5.11 ± 0.66 | 3.90 ± 0.81 | Decreased | 63.58 ± 1.584 | 10 | not affected | mean % dopaminergic neurons ± S.E.M ([1]; 200 nM, 24 h): 4.372 ± 0.3579%; Selective loss of dopaminergic neurons ([1]; 200 nM, 24 h): 23%; NT fluorescence intensity normalized to mean control value ± SEM, non-dopaminergic neurons [5]: 130.1 ± 14.91; Fold increase in NT immunofluorescence signal vs. control, dopaminergic neurons [6]: > 5 fold and ~4 fold; NT fluorescence intensity normalized to mean control value ± SEM, dopaminergic neurons [6]: 362.9 ± 45.8
